Here are results for seven compounds from patent publication US6866833B1, “Substituted thiourea complexing agent and a method for extracting a noble metal from a matrix using the complexing agent” (University College Cork, priority 1999, dated 2005).

Data set [1] is described as follows: Supercritical fluid extraction of Au(III) as AuCl4^− from filter paper, gold determined by atomic absorption spectroscopy. The note with it: observed after Au(III) SFE runs, 20 mg ligand. The procedure:
Gold Au(III) extraction by the ligand of the comparative Example (a) was investigated employing a BDH Gold (III) standard containing 1000 ppm Au(III) (aqueous AuCl4^−). Thus 60 μl of solution Au(III) containing 3.05×10^−7 moles Au(III) was applied to a 3 cm diameter filter paper. The filter paper was allowed to dry and then placed in a glass tube (2 cm×0.5 cm i.d.), plugged with glass wool at both ends. 20 mg of ligand of the comparative Example (a) (in excess of over 200 fold over Au(III) level) was then placed in the same glass tube and plugged with glass wool.
The extraction vessel was statically extracted for 20 minutes and then dynamically extracted into a collecting solvent of 4 ml methanol for 15 minutes (0.8 ml CO2/minute flow rate). The methanol solution was then made up to 10 ml using additional methanol. Levels of gold in solution were then determined by atomic absorption spectroscopy. The procedure was carried out at different pressures from 200-400 atm. The following extraction percentages were obtained:
The procedure in Example 5(a) was repeated except the temperature of the extraction procedure was varied from 60-120° C., while maintaining the pressure of the extractor at 400 atm. The following results were obtained:
The procedure in Example 6 was repeated with the ligand from Example 1 being used in place of the ligand of the Comparative Example (a). The following % extraction values were obtained at differing pressures for extraction of Au(III):
The procedure of Example 7 was repeated employing the ligand of Example 2 in place of the ligand of Example 1 and utilising 50 μl Au(III) standard solution in place of 60 μl to give the following % extraction results at differing pressures of SF—CO2 at 60° C.

Data set [2] is described as follows: Solubility of the ligand in supercritical CO2 (weight loss of glass tube after static SFE). It is filed as physicochemical. To be noted: 60° C.; for Solubility in SF—CO2: approx. 60 mg ligand, 2.2 ml 100% SF—CO2, static 30 minutes, 200 and 300 atmospheres. Here is the method:
The solubility of the ligand of the comparative Examples (a)-(c) in supercritical CO2 was compared with the solubilities of the ligands of Examples 1 and 2 and 3 in supercritical CO2.
In each case, a weighed amount of the ligand of the respective comparative Example of approximately 60 mg was placed in a glass tube (2 cm×0.5 cm i.d.) and plugged with glass wool at both ends. The glass tube was placed inside the extraction vessel and statically extracted for 30 minutes. The inlet valve for SF—CO2 was then closed and the outlet valve opened into a collecting solution. The loss of weight of the glass tube after SFE corresponded to the solubility of the ligand in 2.2 ml 100% SF—CO2. The procedure was carried out at 60° C. and two different pressures namely 200 and 300 atmospheres.

Where only a bound is given, the exact number is not on record here.

Turning to `NC(=S)Nc1cc(C(F)(F)F)cc(C(F)(F)F)c1` [Comparative Example (a)], the “Solubility in SF—CO2 (ligand remaining in glass tube after extraction runs)” value in data set [1] was “poor solubility”.
Still for that read-out and setting: the same measure for `CCCCCCCCNC(=S)NC` [Comparative Example (b), N-methyl,N′-octyl thiourea]: “poor solubility”; for `CCCCCCCCCCCCNC(=S)NC` [Comparative Example (c), N-methyl, N′-dodecyl thiourea]: “poor solubility”.
Regarding `FC(F)(F)c1cc(NC(=S)NCC(F)(F)C(F)(F)C(F)(F)F)cc(C(F)(F)F)c1` [Example 1], the “Solubility in SF—CO2” value in data set [2] is reported as “excellent solubility”.
Still for that read-out and setting: the same measure for `FC(F)(F)CNC(=S)Nc1cc(C(F)(F)F)cc(C(F)(F)F)c1` [Example 2]: “excellent solubility”.
On to `FC(F)(F)c1cc(NC(=S)NCC(F)(F)C(F)(F)C(F)(F)C(F)(F)C(F)(F)C(F)(F)C(F)(F)F)cc(C(F)(F)F)c1` [Example 3(a)], for which, in data set [2], the “Solubility in SF—CO2” value is “excellent solubility”.
Regarding `CNC(=S)NCC(F)(F)C(F)(F)C(F)(F)F` [Example 3(b), N-methyl, N′-heptafluorobutyl thiourea], the “Solubility in SF—CO2” value in data set [2] is “excellent solubility”. Further, the solubility (commonly the concentration that dissolves in the medium under given conditions) at 30 min in data set [2] (supercritical CO2, organic solvent or mixture, thermodynamic from solid, larger amounts of ligand, both pressures (200 and 300 atmospheres), read-out: Solubility in SF—CO2) was over 700 mM.
